# Activity calls are given as the source filed them. No cut-off for these calls is given here.
# Legend:
# [1] = Acute toxicity in BALB/c mouse xenografted with human HGC-27 cells assessed as increase in mucin secretion of lung at 40 mg/kg,ip administrated every other day for 17 days by hematoxylin and eosin staining method; type: organism-based; settings: in vivo, 408 h, time 17 day
# HGC-27 [2] = test: Antitumor activity against human HGC-27 cells xenografted in BALB/c mouse assessed as tumor growth inhibition at 40 mg/kg,ip administrated every other day for 17 days relative to control; type: functional; settings: HGC-27, 408 h, time 17 day, read-out: TGI
# HeLa = test: Antiproliferative activity against human HeLa cells assessed as inhibition of cell growth incubated for 48 hrs by MTT assay; type: functional, cell-based
# [3] = Acute toxicity in BALB/c mouse xenografted with human HGC-27 cells assessed as change in body weight at 40 mg/kg,ip administrated every other day for 17 days; type: organism-based; settings: in vivo, 408 h, time 17 day
# HepG2 = test: Antiproliferative activity against human HepG2 cells assessed as inhibition of cell growth incubated for 48 hrs by MTT assay; type: functional, cell-based; settings: HepG2, 48 h
# A549 = test: Antiproliferative activity against human A549 cells assessed as inhibition of cell growth incubated for 48 hrs by MTT assay; type: functional, cell-based; settings: A549, 48 h
# HGC-27 [4] = test: Antiproliferative activity against human HGC-27 cells assessed as inhibition of cell growth incubated for 48 hrs by MTT assay; type: functional, cell-based; settings: HGC-27, 48 h
# [5] = Acute toxicity in BALB/c mouse xenografted with human HGC-27 cells assessed as increase in connective tissue proliferation of kidney at 40 mg/kg,ip administrated every other day for 17 days by hematoxylin and eosin staining method; type: organism-based; settings: in vivo, 408 h, time 17 day
# [6] = Acute toxicity in BALB/c mouse xenografted with human HGC-27 cells assessed as venous congestion in spleen at 40 mg/kg,ip administrated every other day for 17 days by hematoxylin and eosin staining method; type: organism-based; settings: in vivo, 408 h, time 17 day
# HGC-27 [7] = test: Induction of apoptosis in human HGC-27 cells assessed as viable cells at 1.25 uM incubated for 24 hrs by annexin V-FITC/PI satining based flow cytometry (reference value: 95.3 %); type: functional; settings: read-out: Activity
# HGC-27 [8] = test: Induction of apoptosis in human HGC-27 cells assessed as upregulation of cleaved caspase-3 expression incubated for 48 hrs by Western blotting analysis; type: functional, cell-based
# HGC-27 [9] = test: Induction of cell cycle arrest in human HGC-27 cells assessed as accumulation of cells at G0/G1 phase at 5 uM incubated for 48 hrs by flow cytometry relative to control; type: functional
# HGC-27 [10] = test: Induction of apoptosis in human HGC-27 cells assessed as late apoptotic cells at 5 uM incubated for 24 hrs by annexin V-FITC/PI satining based flow cytometry (reference value: 0.32 %); type: functional
# HGC-27 [11] = test: Induction of apoptosis in human HGC-27 cells at 1.25 uM incubated for 24 hrs by annexin V-FITC/PI satining based flow cytometry relative to control; type: functional
# HGC-27 [12] = test: Induction of apoptosis in human HGC-27 cells assessed as late apoptotic cells at 1.25 uM incubated for 24 hrs by annexin V-FITC/PI satining based flow cytometry (reference value: 0.32 %); type: functional
# HGC-27 [13] = test: Induction of apoptosis in human HGC-27 cells assessed as viable cells at 2.5 uM incubated for 24 hrs by annexin V-FITC/PI satining based flow cytometry (reference value: 95.3 %); type: functional; settings: read-out: Activity
# HGC-27 [14] = test: Induction of apoptosis in human HGC-27 cells assessed as upregulation of Bax expression incubated for 48 hrs by Western blotting analysis; type: functional, cell-based
# HGC-27 [15] = test: Induction of apoptosis in human HGC-27 cells assessed as upregulation of cleaved PARP expression incubated for 48 hrs by Western blotting analysis; type: functional, cell-based
# HGC-27 [16] = test: Induction of apoptosis in human HGC-27 cells at 5 uM incubated for 24 hrs by annexin V-FITC/PI satining based flow cytometry relative to control; type: functional
# HGC-27 [17] = test: Induction of apoptosis in human HGC-27 cells assessed as necrotic cells at 1.25 uM incubated for 24 hrs by annexin V-FITC/PI satining based flow cytometry (reference value: 0.13 %); type: functional
# L02 = test: Antiproliferative activity against human L02 cells assessed as inhibition of cell growth incubated for 48 hrs by MTT assay; type: functional, cell-based; settings: L02, 48 h
# HGC-27 [18] = test: Inhibition of colony formation in human HGC-27 cells incubated for 48 hrs by crystal violet staining based microscopic analysis; type: functional, cell-based
# HGC-27 [19] = test: Induction of apoptosis in human HGC-27 cells assessed as downregulation of PARP expression incubated for 48 hrs by Western blotting analysis; type: functional, cell-based
# HGC-27 [20] = test: Induction of apoptosis in human HGC-27 cells assessed as early apoptotic cells at 1.25 uM incubated for 24 hrs by annexin V-FITC/PI satining based flow cytometry (reference value: 4.2 %); type: functional
# [21] = biological target: T1, DNA topoisomerase 1 (Homo sapiens) (UniProt P11387); test: Inhibition of human topoisomerase 1 assessed as relaxation of supercoiled pBR322 plasmid DNA incubated for 10 to 15 mins by EtBr staining based agarose gel electrophoresis method; settings: time 10-15 min
# T1 sequence (whole entry): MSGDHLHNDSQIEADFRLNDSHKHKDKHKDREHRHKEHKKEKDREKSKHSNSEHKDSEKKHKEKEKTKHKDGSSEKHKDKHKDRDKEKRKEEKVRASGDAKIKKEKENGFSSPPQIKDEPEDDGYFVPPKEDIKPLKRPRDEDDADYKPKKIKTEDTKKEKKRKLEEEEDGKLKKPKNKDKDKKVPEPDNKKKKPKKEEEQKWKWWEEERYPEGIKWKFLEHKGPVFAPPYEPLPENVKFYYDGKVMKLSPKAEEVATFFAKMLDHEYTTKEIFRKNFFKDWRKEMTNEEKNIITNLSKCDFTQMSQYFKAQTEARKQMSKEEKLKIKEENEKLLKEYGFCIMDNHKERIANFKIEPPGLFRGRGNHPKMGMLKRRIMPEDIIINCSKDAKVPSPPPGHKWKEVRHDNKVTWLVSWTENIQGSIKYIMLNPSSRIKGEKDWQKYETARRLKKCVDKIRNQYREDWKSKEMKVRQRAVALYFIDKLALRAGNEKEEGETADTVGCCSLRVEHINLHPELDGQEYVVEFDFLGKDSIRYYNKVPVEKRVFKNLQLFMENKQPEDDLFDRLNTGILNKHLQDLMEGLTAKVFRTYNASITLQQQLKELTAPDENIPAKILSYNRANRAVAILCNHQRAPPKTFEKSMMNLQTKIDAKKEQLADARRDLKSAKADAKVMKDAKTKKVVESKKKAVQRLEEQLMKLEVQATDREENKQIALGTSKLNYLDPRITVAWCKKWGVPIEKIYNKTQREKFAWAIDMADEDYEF
# HGC-27 [22] = test: Induction of apoptosis in human HGC-27 cells assessed as early apoptotic cells at 5 uM incubated for 24 hrs by annexin V-FITC/PI satining based flow cytometry (reference value: 4.2 %); type: functional
# HGC-27 [23] = test: Induction of apoptosis in human HGC-27 cells assessed as necrotic cells at 5 uM incubated for 24 hrs by annexin V-FITC/PI satining based flow cytometry (reference value: 0.13 %); type: functional
# HGC-27 [24] = test: Induction of apoptosis in human HGC-27 cells assessed as necrotic cells at 2.5 uM incubated for 24 hrs by annexin V-FITC/PI satining based flow cytometry (reference value: 0.13 %); type: functional
# HGC-27 [25] = test: Induction of apoptosis in human HGC-27 cells at 2.5 uM incubated for 24 hrs by annexin V-FITC/PI satining based flow cytometry relative to control; type: functional
# HGC-27 [26] = test: Induction of DNA damage in human HGC-27 cells assessed as upregulation of gamma-H2AX expression incubated for 48 hrs by Western blotting analysis; type: functional, cell-based
# HGC-27 [27] = test: Induction of cell cycle arrest in human HGC-27 cells assessed as accumulation of cells at G0/G1 phase at 1.25 uM incubated for 48 hrs by flow cytometry relative to control; type: functional
# HGC-27 [28] = test: Induction of DNA damage in human HGC-27 cells assessed as upregulation of p53 phoshorylation incubated for 48 hrs by Western blotting analysis; type: functional, cell-based
# HGC-27 [29] = test: Induction of DNA damage in human HGC-27 cells assessed as upregulation of p53 expression incubated for 48 hrs by Western blotting analysis; type: functional, cell-based
# HGC-27 [30] = test: Induction of apoptosis in human HGC-27 cells assessed as viable cells at 5 uM incubated for 24 hrs by annexin V-FITC/PI satining based flow cytometry (reference value: 95.3 %); type: functional; settings: read-out: Activity
# HGC-27 [31] = test: Induction of cell cycle arrest in human HGC-27 cells assessed as accumulation of cells at G0/G1 phase at 2.5 uM incubated for 48 hrs by flow cytometry relative to control; type: functional
# HGC-27 [32] = test: Induction of apoptosis in human HGC-27 cells assessed as late apoptotic cells at 2.5 uM incubated for 24 hrs by annexin V-FITC/PI satining based flow cytometry (reference value: 0.32 %); type: functional
# HGC-27 [33] = test: Inhibition of cell migration in human HGC-27 cells incubated upto 72 hrs by scratch wound healing based microscopic analysis; type: functional
# HGC-27 [34] = test: Induction of apoptosis in human HGC-27 cells assessed as downregulation of Bcl-2 expression incubated for 48 hrs by Western blotting analysis; type: functional, cell-based
# HGC-27 [35] = test: Induction of apoptosis in human HGC-27 cells assessed as upregulation of caspase-3 expression incubated for 48 hrs by Western blotting analysis; type: functional, cell-based
# HGC-27 [36] = test: Induction of apoptosis in human HGC-27 cells assessed as early apoptotic cells at 2.5 uM incubated for 24 hrs by annexin V-FITC/PI satining based flow cytometry (reference value: 4.2 %); type: functional
# [37] = biological target: Poly [ADP-ribose] polymerase 1 (Homo sapiens, UniProt P09874); test: Inhibition of PARP-1 (unknown origin) incubated for 70 mins by HT universal chemiluminescent assay
# [38] = Acute toxicity in BALB/c mouse xenografted with human HGC-27 cells assessed as venous congestion in liver at 40 mg/kg,ip administrated every other day for 17 days by hematoxylin and eosin staining method; type: organism-based; settings: in vivo, 408 h, time 17 day
# [39] = biological target: T1, DNA topoisomerase 1 (Homo sapiens); test: Inhibition of human topoisomerase 1 assessed as relaxation of supercoiled pBR322 plasmid DNA at 100 uM incubated for 10 to 15 mins by EtBr staining based agarose gel electrophoresis method; settings: time 10-15 min
# Sequence of Poly [ADP-ribose] polymerase 1 (P09874 whole entry): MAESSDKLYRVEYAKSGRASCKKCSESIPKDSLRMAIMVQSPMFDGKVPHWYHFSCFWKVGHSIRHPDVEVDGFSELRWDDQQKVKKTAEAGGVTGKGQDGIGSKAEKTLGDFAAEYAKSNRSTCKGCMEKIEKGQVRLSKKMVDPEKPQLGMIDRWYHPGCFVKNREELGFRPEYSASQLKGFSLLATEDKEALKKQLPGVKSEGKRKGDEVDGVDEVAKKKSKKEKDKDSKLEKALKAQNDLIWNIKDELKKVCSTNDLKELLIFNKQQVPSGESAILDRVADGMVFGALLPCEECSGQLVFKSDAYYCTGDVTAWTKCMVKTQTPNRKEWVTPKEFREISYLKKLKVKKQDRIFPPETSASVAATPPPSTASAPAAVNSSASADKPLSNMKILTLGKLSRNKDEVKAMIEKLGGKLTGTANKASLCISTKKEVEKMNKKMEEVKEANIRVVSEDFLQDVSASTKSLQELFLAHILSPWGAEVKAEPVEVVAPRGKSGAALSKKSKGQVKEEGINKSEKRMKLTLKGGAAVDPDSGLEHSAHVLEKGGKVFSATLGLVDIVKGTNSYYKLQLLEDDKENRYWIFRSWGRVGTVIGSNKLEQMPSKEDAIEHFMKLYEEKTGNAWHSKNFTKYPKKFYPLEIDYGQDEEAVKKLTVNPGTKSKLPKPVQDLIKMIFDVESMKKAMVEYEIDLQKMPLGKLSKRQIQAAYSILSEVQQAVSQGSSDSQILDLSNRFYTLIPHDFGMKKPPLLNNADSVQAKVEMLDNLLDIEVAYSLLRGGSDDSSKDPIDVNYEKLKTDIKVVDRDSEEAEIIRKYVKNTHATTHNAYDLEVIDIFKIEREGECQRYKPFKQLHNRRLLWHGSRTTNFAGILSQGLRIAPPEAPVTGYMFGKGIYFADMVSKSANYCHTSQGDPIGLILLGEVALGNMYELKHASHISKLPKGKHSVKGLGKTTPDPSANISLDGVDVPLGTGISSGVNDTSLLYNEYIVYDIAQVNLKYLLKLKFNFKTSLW
smiles,measurement,setting,value
CCc1c2c(nc3ccc(OC(=O)N4CCC(N5CCCCC5)CC4)cc13)-c1cc3c(c(=O)n1C2)COC(=O)[C@]3(O)CC [IRINOTECAN],Activity,[1],Toxic
same,inhibition in vivo at 40 mg/kg,HGC-27 [2],87%
same,IC50,HeLa,13.2 µM
same,Activity,[3],Toxic
same,IC50,HepG2,10.8 µM
same,IC50,A549,6.13 µM
same,IC50,HGC-27 [4],7.01 µM
same,Activity,[5],Toxic
same,Activity,[6],Toxic
O=C(OCC1c2ccccc2-c2ccccc21)N1C[C@@H]2CCCN3CCC[C@@H]([C@H]23)[C@H]1CCCc1nc2cc(Br)c(Br)cc2[nH]1,viability at 1.25 µM,HGC-27 [7],80.7%
same,Activity,HGC-27 [8],Dose-Dependent Effect
same,Activity,HGC-27 [9],74%
same,Activity,HGC-27 [10],8.01%
same,Activity,HGC-27 [11],15.5%
same,Activity,HGC-27 [12],1.79%
same,viability at 2.5 µM,HGC-27 [13],51.7%
same,Activity,HGC-27 [14],Dose-Dependent Effect
same,Activity,HGC-27 [15],Dose-Dependent Effect
same,Activity,HGC-27 [16],76%
same,inhibition in vivo at 40 mg/kg,HGC-27 [2],75.4%
same,Activity,HGC-27 [17],0.37%
same,IC50,L02,> 64 µM
same,inhibition,HGC-27 [18],Dose-Dependent Effect
same,Activity,HGC-27 [19],Dose-Dependent Effect
same,Activity,HGC-27 [20],17.2%
same,inhibition,[21],Dose-Dependent Effect
same,Activity,HGC-27 [22],72.5%
same,Activity,HGC-27 [23],1.42%
same,Activity,HGC-27 [24],0.6%
same,IC50,HeLa,7.21 µM
same,Activity,HGC-27 [25],43.1%
same,Activity,[3],Toxic
same,IC50,HepG2,3.8 µM
same,Activity,HGC-27 [26],Dose-Dependent Effect
same,Activity,HGC-27 [27],66%
same,IC50,A549,9.48 µM
same,IC50,HGC-27 [4]; read-out: IC50,2.49 µM
same,Activity,HGC-27 [28],Dose-Dependent Effect
same,Activity,HGC-27 [29],Dose-Dependent Effect
same,viability at 5 µM,HGC-27 [30],18.1%
same,Activity,HGC-27 [31],70%
same,Activity,HGC-27 [32],7%
same,inhibition,HGC-27 [33],Dose-Dependent Effect
same,Activity,HGC-27 [34],Dose-Dependent Effect
same,Activity,HGC-27 [35],Dose-Dependent Effect
same,Activity,HGC-27 [36],40.6%
same,IC50,[37],0.09 µM
O=C1CCC[C@@H]2[C@H]3CCCN4CCC[C@@H](CN12)[C@@H]34 [MATRINE],inhibition in vivo at 40 mg/kg,HGC-27 [2],9.7%
same,IC50,HeLa,6750 µM
same,Activity,[3],Toxic
same,IC50,HepG2,4360 µM
same,IC50,A549,5880 µM
same,IC50,HGC-27 [4]; read-out: IC50,4180 µM
same,Activity,[6],Toxic
same,Activity,[38],Toxic
O=C(CCC[C@@H]1[C@H]2CCCN3CCC[C@@H](CN1C(=O)OCC1c4ccccc4-c4ccccc41)[C@@H]23)Nc1nc2ccccc2[nH]1,inhibition,[39],Active
same,IC50,L02,> 64 µM
same,IC50,HeLa,16.1 µM
same,IC50,HepG2,6.45 µM
same,IC50,A549,12.3 µM
same,IC50,HGC-27 [4]; read-out: IC50,7.38 µM
same,IC50,[37],2.58 µM

# — ChEMBL document CHEMBL5500344, “Design, synthesis and biological evaluation of matrine contains benzimidazole derivatives as dual TOPOI and PARP inhibitors for cancer therapy” (Eur J Med Chem, 2024)
